Calls of active or inactive are those of the source. The calls are words filed in the database; no cut-off is given here.
What was measured:
[1] = tested on: 3T3-L1; test: Effect on adipogenesis in mouse 3T3L1 cells assessed as reduction in Adipoq gene expression at 5 to 50 uM after 8 days by real time quantitative PCR analysis relative to vehicle-treated control; type: functional, cell-based
[2] = tested on: 3T3-L1; test: Effect on adipogenesis in mouse 3T3L1 cells assessed as reduction in Pparg gene expression at 5 to 50 uM after 4 days by real time quantitative PCR analysis relative to vehicle-treated control; type: functional, cell-based
[3] = Cytotoxicity against mouse 3T3L1 cells assessed as effect on lactate dehydrogenase release at 5 to 50 uM measured on day 8; type: cell-based; conditions: 3t3-l1, 50 µM
[4] = target: T1, Peroxisome proliferator-activated receptor gamma (Homo sapiens) (UniProt P37231); test: Competitive binding to human GST-tagged PPAR-gamma at <=100 uM by TR-FRET assay
T1 sequence (whole entry): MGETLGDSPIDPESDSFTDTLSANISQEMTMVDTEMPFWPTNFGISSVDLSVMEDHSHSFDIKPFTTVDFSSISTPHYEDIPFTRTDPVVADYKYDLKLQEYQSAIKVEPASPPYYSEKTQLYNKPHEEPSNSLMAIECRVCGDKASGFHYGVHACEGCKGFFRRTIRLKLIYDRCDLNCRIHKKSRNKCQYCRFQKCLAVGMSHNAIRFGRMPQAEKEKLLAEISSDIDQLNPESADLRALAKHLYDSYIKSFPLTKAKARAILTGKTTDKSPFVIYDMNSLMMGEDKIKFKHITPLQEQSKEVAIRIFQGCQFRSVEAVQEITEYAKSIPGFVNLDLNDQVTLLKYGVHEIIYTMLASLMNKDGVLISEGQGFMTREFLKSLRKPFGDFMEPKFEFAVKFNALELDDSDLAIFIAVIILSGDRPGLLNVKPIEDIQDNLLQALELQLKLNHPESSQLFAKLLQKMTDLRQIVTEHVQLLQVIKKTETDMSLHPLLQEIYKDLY

[5] = tested on: 3T3-L1; test: Reduction in triglyceride release in mouse 3T3L1 cells at 50 uM after 48 hrs by fluorescence-based AdipoRed assay; type: functional, cell-based
[6] = tested on: 3T3-L1; test: Effect on adipogenesis in mouse 3T3L1 cells in DI media assessed as increase in lipid accumulation after 8 days by fluorescence-based AdipoRed assay; type: functional, cell-based
[7] = tested on: 3T3-L1; test: Effect on lipolysis in mouse 3T3L1 cells assessed as reduction in glycerol level at 5 to 50 uM after 48 hrs by UV-Vis spectrophotometry; type: functional, cell-based
[8] = target: Peroxisome proliferator-activated receptor gamma (Mus musculus) (UniProt P37238); test: Partial agonist activity at PPAR-gamma in mouse embryo fibroblast assessed as reduction in activation at 5 to 50 uM by transactivation assay in presence of rosiglitazone
[9] = tested on: 3T3-L1; test: Effect on adipogenesis in mouse 3T3L1 cells assessed as increase in lipid accumulation at 5 to 50 uM measured on day 8 by oil red o assay; type: functional, cell-based
[10] = tested on: 3T3-L1; test: Induction of lipolysis in mouse 3T3L1 cells assessed as up-regulation of Atgl gene exression by real time-qPCR analysis; type: functional, cell-based
[11] = Cytotoxicity against mouse 3T3L1 cells assessed as effect on lactate dehydrogenase release at 5 to 50 uM measured on day 2; type: cell-based; conditions: 3t3-l1, 50 µM
[12] = tested on: 3T3-L1; test: Effect on adipogenesis in mouse 3T3L1 cells in DI media assessed as increase in fat-laden mature adipocytes after 8 days by oil red o assay; type: functional, cell-based
[13] = target: T2, Peroxisome proliferator-activated receptor gamma (Mus musculus) (UniProt P37238); test: Agonist activity at PPAR-gamma in mouse embryo fibroblast at 5 to 50 uM by transactivation assay relative to rosiglitazone
T2 sequence (whole entry): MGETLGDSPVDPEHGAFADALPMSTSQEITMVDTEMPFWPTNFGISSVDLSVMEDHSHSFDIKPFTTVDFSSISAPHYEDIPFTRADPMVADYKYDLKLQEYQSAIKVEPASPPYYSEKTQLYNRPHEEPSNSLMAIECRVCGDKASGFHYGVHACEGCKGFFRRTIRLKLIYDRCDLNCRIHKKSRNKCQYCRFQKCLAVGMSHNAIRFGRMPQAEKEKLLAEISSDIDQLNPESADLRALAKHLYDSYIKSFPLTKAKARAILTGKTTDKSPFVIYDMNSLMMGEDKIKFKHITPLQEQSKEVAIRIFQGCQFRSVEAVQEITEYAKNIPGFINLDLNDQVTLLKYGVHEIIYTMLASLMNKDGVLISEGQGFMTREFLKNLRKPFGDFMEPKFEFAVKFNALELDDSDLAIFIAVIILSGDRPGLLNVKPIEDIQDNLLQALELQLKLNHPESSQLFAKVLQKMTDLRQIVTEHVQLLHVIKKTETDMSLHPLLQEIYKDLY

[14] = tested on: 3T3-L1; test: Effect on adipogenesis in mouse 3T3L1 cells assessed as reduction in Cebpa gene expression at 5 to 50 uM after 8 days by real time quantitative PCR analysis relative to vehicle-treated control; type: functional, cell-based
[15] = Effect on adipogenesis in mature mouse 3T3L1 cells assessed as upregulation of Sirt1 gene expression; type: functional, cell-based; conditions: 3T3-L1
[16] = tested on: 3T3-L1; test: Effect on adipogenesis in mouse 3T3L1 cells assessed as increase in lipid accumulation at 5 to 50 uM measured on day 8 by fluorescence-based AdipoRed assay; type: functional, cell-based
[17] = tested on: 3T3-L1; test: Effect on adipogenesis in mouse 3T3L1 cells assessed as increase in Srebf1 gene expression at 5 to 50 uM after 8 days by real time quantitative PCR analysis relative to vehicle-treated control; type: functional, cell-based
[18] = tested on: 3T3-L1; test: Effect on adipogenesis in mouse 3T3L1 cells assessed as reduction in Fabp4 gene expression at 5 to 50 uM after 8 days by real time quantitative PCR analysis relative to vehicle-treated control; type: functional, cell-based
[19] = tested on: 3T3-L1; test: Activation of AMPK in mouse 3T3L1 cells assessed as AMPK phosphorylation at 50 uM after 5 to 48 hrs by Western blotting analysis; type: cell-based
[20] = tested on: 3T3-L1; test: Effect on adipogenesis in mouse 3T3L1 cells assessed as reduction in Cebpa gene expression at 5 to 50 uM after 4 days by real time quantitative PCR analysis relative to vehicle-treated control; type: functional, cell-based
[21] = tested on: 3T3-L1; test: Reduction in triglyceride release in mouse 3T3L1 cells at 50 uM after 48 hrs by oil red o assay; type: functional, cell-based
[22] = tested on: 3T3-L1; test: Effect on adipogenesis in mouse 3T3L1 cells assessed as reduction in Adipoq gene expression at 5 to 50 uM after 4 days by real time quantitative PCR analysis relative to vehicle-treated control; type: functional, cell-based
[23] = Cytotoxicity against mouse 3T3L1 cells assessed as LDH release at 50 uM after 48 hrs; type: cell-based; conditions: 3t3-l1, 48 h
[24] = tested on: 3T3-L1; test: Effect on adipogenesis in mouse 3T3L1 cells assessed as reduction in Pparg gene expression at 5 to 50 uM after 8 days by real time quantitative PCR analysis relative to vehicle-treated control; type: functional, cell-based
[25] = tested on: 3T3-L1; test: Effect on adipogenesis in mouse 3T3L1 cells assessed as reduction in Srebf1 gene expression at 5 to 50 uM after 4 days by real time quantitative PCR analysis relative to vehicle-treated control; type: functional, cell-based
[26] = tested on: 3T3-L1; test: Effect on adipogenesis in mouse 3T3L1 cells assessed as reduction in Fabp4 gene expression at 5 to 50 uM after 4 days by real time quantitative PCR analysis relative to vehicle-treated control; type: functional, cell-based
[27] = tested on: 3T3-L1; test: Reduction of adipogenesis in mouse 3T3L1 cells assessed as decrease in lipid accumulation measured on day 8 by oil red o assay; type: functional, cell-based
[28] = tested on: 3T3-L1; test: Induction of lipolysis in mouse 3T3L1 cells assessed as up-regulation of Acox1 gene exression by real time-qPCR analysis; type: functional, cell-based
[29] = tested on: 3T3-L1; test: Reduction in lipogenesis in mouse 3T3L1 cells assessed as down regulation of Scd1 gene exression by real time-qPCR analysis; type: functional, cell-based
[30] = tested on: 3T3-L1; test: Reduction of adipogenesis in mouse 3T3L1 cells assessed as decrease in lipid accumulation measured on day 8 by fluorescence-based AdipoRed assay; type: functional, cell-based
[31] = target: T3, Peroxisome proliferator-activated receptor alpha (Homo sapiens) (UniProt Q07869); test: Agonist activity at PPAR-alpha (unknown origin) by transactivation assay
T3 sequence (whole entry): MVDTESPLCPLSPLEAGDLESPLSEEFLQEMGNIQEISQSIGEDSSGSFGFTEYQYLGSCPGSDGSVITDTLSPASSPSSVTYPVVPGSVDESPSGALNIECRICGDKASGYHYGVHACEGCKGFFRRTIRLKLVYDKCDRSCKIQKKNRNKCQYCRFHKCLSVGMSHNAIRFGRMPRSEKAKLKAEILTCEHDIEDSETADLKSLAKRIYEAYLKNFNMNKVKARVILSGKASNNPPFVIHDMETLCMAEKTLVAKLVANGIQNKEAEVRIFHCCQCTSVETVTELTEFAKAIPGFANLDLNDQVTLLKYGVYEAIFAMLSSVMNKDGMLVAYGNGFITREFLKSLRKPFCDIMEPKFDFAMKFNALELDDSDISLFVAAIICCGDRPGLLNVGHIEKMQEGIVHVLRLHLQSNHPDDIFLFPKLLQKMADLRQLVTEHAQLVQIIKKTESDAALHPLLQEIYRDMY

[32] = target: T4, Peroxisome proliferator-activated receptor delta (Homo sapiens) (UniProt Q03181); test: Agonist activity at PPAR-delta (unknown origin) by transactivation assay
T4 sequence (whole entry): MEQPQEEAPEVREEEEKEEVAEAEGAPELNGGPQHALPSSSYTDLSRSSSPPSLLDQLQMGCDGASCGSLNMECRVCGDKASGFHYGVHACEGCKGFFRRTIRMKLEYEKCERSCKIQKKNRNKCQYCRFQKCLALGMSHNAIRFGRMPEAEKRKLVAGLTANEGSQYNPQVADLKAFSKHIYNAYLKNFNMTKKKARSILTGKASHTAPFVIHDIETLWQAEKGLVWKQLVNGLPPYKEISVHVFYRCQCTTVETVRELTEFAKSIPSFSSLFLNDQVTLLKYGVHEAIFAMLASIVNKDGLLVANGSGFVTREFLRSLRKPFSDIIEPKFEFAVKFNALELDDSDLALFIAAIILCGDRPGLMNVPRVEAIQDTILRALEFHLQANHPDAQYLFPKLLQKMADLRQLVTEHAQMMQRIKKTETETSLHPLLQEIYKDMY

[33] = tested on: 3T3-L1; test: Effect on adipogenesis in mouse 3T3L1 cells in DI media assessed as reduction in lipid accumulation at 50 uM measured on day 8 by fluorescence-based AdipoRed assay; type: functional, cell-based
[34] = tested on: 3T3-L1; test: Effect on adipogenesis in mouse 3T3L1 cells in DI media assessed as reduction in fat-laden mature adipocytes at 50 uM after 8 days by oil red o assay; type: functional, cell-based
[35] = tested on: 3T3-L1; test: Effect on adipogenesis in mouse 3T3L1 cells in DI media assessed as increase in lipid accumulation at <25 uM after 8 days by fluorescence-based AdipoRed assay; type: functional, cell-based
[36] = target: T2, Peroxisome proliferator-activated receptor gamma (Mus musculus); test: Agonist activity at PPAR-gamma in mouse embryo fibroblast by transactivation assay relative to rosiglitazone
[37] = tested on: 3T3-L1; test: Effect on adipogenesis in mouse 3T3L1 cells in DI media assessed as increase in fat-laden mature adipocytes at <25 uM after 8 days by oil red o assay; type: functional, cell-based
[38] = target: Peroxisome proliferator-activated receptor gamma (Mus musculus) (UniProt P37238); test: Partial agonist activity at PPAR-gamma in mouse embryo fibroblast assessed as reduction in activation by transactivation assay in presence of rosiglitazone
[39] = target: T5, Peroxisome proliferator-activated receptor gamma (Homo sapiens, UniProt P37231); test: Binding affinity to PPAR-gamma (unknown origin)
T5 sequence (P37231 whole entry): T1 sequence (whole entry)

[40] = tested on: 3T3-L1; test: Activation of AMPK in mouse 3T3L1 cells assessed as AMPK phosphorylation at 500 uM after 5 hrs by Western blotting analysis; type: cell-based

COc1ccc(-c2coc3cc(O)ccc3c2=O)cc1 [FORMONONETIN]
Activity [1]: Active
Activity [2]: Active
Activity [3]: Non-toxic
Activity [4]: inactive
Activity [5]: inactive
Activity [6]: Dose-dependent effect
Activity [7]: Active
Activity [8]: Active
Activity [9]: Active
Activity [10]: Active
Activity [11]: Non-toxic
Activity [12]: Dose-dependent effect
Activity [13]: inactive
Activity [14]: Active
Activity [15]: inactive
Activity [16]: Active
Activity [17]: inactive
Activity [18]: Active
Activity [19]: inactive
Activity [20]: Active
Activity [21]: inactive
Activity [22]: Active
Activity [23]: Non-toxic
Activity [24]: Active
Activity [25]: inactive
Activity [26]: Active

COc1ccc(-c2c(-c3ccccc3Br)oc3cc(O)ccc3c2=O)cc1
Activity [27]: Dose-dependent effect
Activity [28]: Active
Activity [3]: Non-toxic
Activity [4]: Active
Activity [5]: Active
Activity [7]: Active
Activity [29]: Active
Activity [30]: Dose-dependent effect
Activity [31]: inactive
Activity [32]: inactive
Activity [33]: Active
Activity [11]: Non-toxic
Activity [34]: Active
Activity [13]: 4%
Activity [15]: inactive
Activity [19]: inactive
Activity [21]: Active
Activity [35]: Active
Activity [36]: Dose-dependent effect
Activity [23]: Toxic
Activity [37]: Active
Activity [38]: Dose-dependent effect

COc1ccc(C(C)C(=O)c2ccc(O)cc2O)cc1 (stereo unspecified)
IC50 [39]: 26 µM

COc1ccc(C2COc3cc(O)ccc3C2=O)cc1 (stereo unspecified)
IC50 [39]: 124 µM

NC(=O)c1ncn([C@@H]2O[C@H](CO)[C@@H](O)[C@H]2O)c1N
Activity [40]: Active
